Values after ≈ are worked out from the molar mass of the structure shown. Values joined by “and” are separate entries in the source; they are usually repeats but may differ in a detail not shown here. Equal values may be shown once. Read-outs that look alike come from different tables or passages of the source.
What was measured:
[1] = tested on: K562 cell line; assay: SRB cytotoxicity assay, K562 leukaemia cell line; conditions: Homo sapiens, K562, 72 h
[2] = tested on: MCF7 cell line; assay: SRB cytotoxicity assay, MCF7 breast cancer cell line; conditions: Homo sapiens, MCF7, 72 h, read-out: Cytotoxicity IC50 value, MCF7 cell line
[3] = tested on: A375.S2 cell line; assay: SRB cytotoxicity assay, A375.S2 melanoma cell line; conditions: Homo sapiens, A375-S2, 72 h, read-out: Cytotoxicity IC50 value, A375.S2 cell line
[4] = tested on: A549 cell line; assay: SRB cytotoxicity assay, A549 lung cancer cell line; conditions: Homo sapiens, A549, 72 h, read-out: Cytotoxicity IC50 value, A549 cell line
[5] = tested on: Candida albicans (C. albicans) ATCC 1023; assay: Quantitative antimycotic assessment (MIC) against C. albicans; assay type: cell-based; conditions: in words
[6] = tested on: PANC 1 cell line; assay: SRB cytotoxicity assay, PANC 1 pancreatic cancer cell line; conditions: Homo sapiens, PANC-1, 72 h, read-out: Cytotoxicity IC50 value, PANC 1 cell line
[7] = tested on: PDL Fibroblasts; assay: SRB cytotoxicity on normal periodontal ligament fibroblasts, selective cytotoxicity; assay type: cell-based, Human; conditions: for IC50: Homo sapiens, Fibroblast, normal fibroblasts, SRB, 72 h, mean ± SD; for Selectivity index SI (K562): IC50 on PDL fibroblasts divided by IC50 on K562
Outline: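 Human periodontal ligament fibroblasts, a primary normal culture, tested by SRB colorimetric assay for cell viability. Selectivity ratio = IC50 on normal fibroblasts divided by IC50 on the pathological cell line.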

[8] = tested on: HELA cell line; assay: SRB cytotoxicity assay, HELA cervical cancer cell line; conditions: Homo sapiens, HeLa, 72 h
[9] = tested on: T47D cell line; assay: cells; conditions: Homo sapiens, T47D, 72 h, read-out: Cytotoxicity IC50 value, T47D cell line
Outline: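 Cells were cultured in DMEM supplemented with FBS, HEPES buffer, L-glutamine and antibiotics, then exposed to compounds. Viability loss was read by SRB staining to give IC50.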

[10] = tested on: Staphylococcus aureus (S. aureus) ATCC 6538; assay: Quantitative antimicrobial assessment (MIC) against S. aureus; assay type: cell-based; conditions: for MIC potency compared with ciprofloxacin, S. aureus: in words
[11] = tested on: SW620; parameters: method as in earlier work; conditions: colon cancer cells, Figure 1; ref Arabiyat et al. 2016a,b; 2017; Alabsi et al. 2018; Jumah 2018; AlShahrabi et al., 2020; read-out: IC50 against SW620; cited from earlier work
[12] = tested on: HCT116; parameters: method as in earlier work; conditions: colon cancer cells, Figure 1; ref Arabiyat et al. 2016a,b; 2017; Alabsi et al. 2018; Jumah 2018; AlShahrabi et al., 2020; read-out: IC50 against HCT116; cited from earlier work
[13] = read-out: Cytotoxicity IC50 value, K562 cell line, SRB, 72 h, 0.1-200 μg/mL range, mean ± SD, value in brackets
[14] = read-out: Cytotoxicity IC50 value, K562 cell line, SRB, 72 h, 0.1-200 μg/mL range, mean ± SD, NI = lack of cytotoxicity in range
[15] = 0.1-200 μg/mL range, NI = lack of cytotoxicity in range
[16] = read-out: Cytotoxicity IC50 value, HELA cell line, SRB, 72 h, 0.1-200 μg/mL range, mean ± SD, value in brackets
[17] = read-out: Cytotoxicity IC50 value, HELA cell line, SRB, 72 h, 0.1-200 μg/mL range, mean ± SD, NI = lack of cytotoxicity in range

| Structure (SMILES) | IC50 [1, 13] [µg/mL] | IC50 [1, 14] [µM] | IC50 [2] | IC50 [3] | IC50 [4] | Antimycotic MIC potency compared with fluconazole, C. albicans [5] | IC50 [6] | IC50 [7, 15] [µM] | IC50 ([7]; value in brackets) [µg/mL] | Selectivity index SI (K562) [7] | IC50 [8, 16] [µg/mL] | IC50 [8, 17] [µM] | IC50 [9] | MIC ([10]; Staphylococcus aureus, ATCC6538, Gram positive, ATCC 6538) [µM] | MIC potency compared with ciprofloxacin, S. aureus [10] | Selectivity index SI (MCF7) ([7]; IC50 on PDL fibroblasts divided by IC50 on MCF7) | IC50 [11] [µM] | IC50 [12] [µM] |
| --- | --- | --- | --- | --- | --- | --- | --- | --- | --- | --- | --- | --- | --- | --- | --- | --- | --- | --- |
| CCCCc1ccc(Nc2c(F)cc3c(=O)c(C(=O)O)cn(C4CC4)c3c2N)cc1 [4e, 8-Amino-1-cyclopropyl-6-fluoro-7-(4-butyl-phenylamino)-4-oxo-1,4-dihydro-quinoline-3-carboxylic acid] | 0.002 | 0.005 ± 0.0009 | 107 µM and 44 µg/mL | 79.2 µM and 32.4 µg/mL | 25.1 µM and 10.3 µg/mL | more potent than antimycotic flucanozole | 20.8 µM and 8.5 µg/mL | 43 ± 3.02 | 18.9 | 8592 | 27.6 | 67.3 ± 6.64 | 44.1 µM and 18 µg/mL | 0.32 (≈ 0.131 µg/mL) | significantly more potent than ciprofloxacin | – | – | – |
| CCCCc1ccc(-n2nnc3c4c(cc(F)c32)c(=O)c(C(=O)O)cn4C2CC2)cc1 [5e, 9-cyclopropyl-4-fluoro-3-(4-butyl-phenyl)-6-oxo-6,9-dihydro-3H-[1,2,3] triazolo[4,5-h]quinoline-7-carboxylic acid] | 20.6 | 49 ± 7.2 | 105 µM and 44.2 µg/mL | 103 µM and 43.1 µg/mL | 181 µM and 76 µg/mL | more potent than antimycotic flucanozole | 87.1 µM and 36.5 µg/mL | 72.6 ± 3.56 | 30.4 | 1.48 | 153 | 364 ± 22.8 | 97.6 µM and 41 µg/mL | – | – | – | – | – |
| CCn1cc(C(=O)O)c(=O)c2cc(F)c3c(nnn3-c3ccc(OC)cc3OC)c21 [13c, 3-(2,4-dimethoxy-phenyl)-9-ethyl-4-fluoro-6-oxo-6,9-dihydro-3H-[1,2,3] triazolo[4,5-h]quinoline-7-carboxylic acid] | 28.2 | 68.7 ± 8.04 | 4.15 µM and 1.71 µg/mL | 487 µM and 201 µg/mL | 662 µM and 272 µg/mL | – | 138 µM and 56.6 µg/mL | 172 ± 17.8 | 70.6 | – | 179 | 435 ± 71.7 | 182 µM and 74.7 µg/mL | – | significantly more potent than ciprofloxacin | 41.35 | – | – |
| CCn1cc(C(=O)O)c(=O)c2cc(F)c(Nc3ccc(Cl)cc3)c(N)c21 [A (X =Cl)] | – | – | – | – | – | – | – | – | – | – | – | – | – | – | – | – | 11.7 | 3.5 |

From paper PMC8325119, “A Novel Class of Functionalized Synthetic Fluoroquinolones with Dual Antiproliferative - Antimicrobial Capacities” (Asian Pacific Journal of Cancer Prevention : APJCP, 2021)
